This is an account of results in patent US10849874B2, “Use of composition for modulating angiogenesis” (National Sun Yat-sen University, priority 2015, dated 2020).

One data set relates to filaggrin. In words: Staining of regulating factor for skin barrier function (filaggrin as marker) in atopic eczema. In kind it is in vivo. The conditions noted are these: balb/c mice, 50 μg/0.2 ml of excavatolide B in lotion (FIG. 10). The method, then:
(§1) The balb/c mice were used in this experiment. The method for inducing atopic eczema comprised: (1) prepared 1% DNCB in olive oil/acetone (1:4); and (2) applied 1% DNCB on the shaved skins of the backs of balb/c mice at day 1, 3, 9, and 11, respectively. The balb/c mice were randomly divided into three groups: (A) the control group; (B) the atopic eczema group; and (C) the EXC-B treating group. The EXC-B treating group was treated with excavatolide B for seven consecutive days starting from day 15. Next, the present invention assessed the treating effect of EXC-B on atopic eczema by image analysis of the appearance.
(§2) (b) Immunohistochemistry Staining:
(§3) Mice were scarified by cervical dislocation. The skin tissues of the backs of the mice were collected, fixed with formalin buffer and embedded in paraffin. The tissue sections were treated with a graded alcohol bath after the paraffin-embedded tissue sections (2 μm) were deparaffinized by xylene. Next, the sections reacted with 0.3% hydrogen peroxide for 30 minutes to remove endogenous peroxidase. After the paraffin-embedded tissue sections reacted with a protein K in a 4% phosphate buffer for 20 minutes at 37° C., the paraffin-embedded tissue sections were washed with 4% phosphate buffer and then blocked with horse serum diluted by phosphate buffer for 1 hr. […]

Another data set relates to substance P. Nature of the data set: Staining of itchy factor (substance P as marker) in atopic eczema. In kind it is in vivo. The note with it: balb/c mice, 50 μg/0.2 ml of excavatolide B in lotion (FIG. 9). The method, then:
as §1, §2, §3

The subject of the next data set is burn wound. Nature of the data set: Healing of burn wound (wound appearance and wound area). In kind it is in vivo, Male Wistar rats. The note with it: rats; for wound healing depended on time (burned restoring area, area under the curve) compared to burn wound group and lotion treating group: day 0-27 (FIG. 4). The method, then:
(b) Preparation of Animal and Operation of Burn Wound:
Male Wistar rats (400-450 g) were used in this experiment. After the rats were anesthetized by 2.5% isoflurane, the present invention selected four burned locations (two locations beneath the scapula of the rat and two locations in the midline of the lumbar spine) on the back of the anesthetized rat. The skins of the burned locations were tightened, and a copper block (2×2 cm) which was preheated to 175° C. by a dry bath was used to closely touch these skins of the locations for 10 seconds to form burn wounds of full-layered skins. The copper block was appropriately moved in order to form a quadrilateral form of burn wound during the burning process. Attention was paid not to add extra pressure on the copper block in order to ensure the same burn pressure each time during the burning process.
(§4) (c) Wound Observation and Area Calculation:
After being burned, the rats were anesthetized and then taken pictures according to experimentally designed dates. A series of pictures were taken by a digital camera (Coolpix P6000, Nikon, Japan) under the same condition (the diaphragm is 7.2, and the camera shutter is 1/60). A digital image capture system software (Diagnostic Instruments, Inc., Sterling Heights, Mich., U.S.A.) was used to analyze the captured wound pictures to calculate the wound area. The data of the wound area at each observation point were respectively presented at percentage of the wound area relative to day zero.

The next data set concerns diabetic incised wound. In words: Healing of diabetic incised wound (wound appearance and wound area). In kind it is in vivo, Male Wistar rats. The note with it: STZ-diabetic rats. The method, then: (a) Preparation of Animal and Operation of Incised Wound in Diabetic Rat:
Male Wistar rats (400-450 g) were used in this experiment. The induction of diabetes was performed by using a citrate buffer solution to prepare streptozotocin (STZ, catalog No. 85882 FLUKA, Sigma, St. Louis, Mo., USA). The rats were anesthetized by 2.5% isoflurane and administered with STZ (60 mg/kg) by tail intravenous injection. A week after STZ injection, those rats with blood glucose levels more than 250 mg/dl were identified as successfully diabetic inducted rats. […] After the surgery of the incision of full-layered skins, the rats were randomly divided into two groups: (1) diabetic incised wound group (administered a normal lotion); and (2) EXC-B treating group (administered a lotion containing excavatolide B). The EXC-B treating group was treated with 1 mg/0.2 ml of excavatolide B in the lotion daily.
as §4
After being burned, the rats were anesthetized and then taken pictures according to experimentally designed dates. A series of pictures were taken by a digital camera (Coolpix P6000, Nikon, Japan) under the same condition (the diaphragm is 7.2, and the camera shutter is 1/60). A digital image capture system software (Diagnostic Instruments, Inc., Sterling Heights, Mich., U.S.A.) was used to analyze the captured wound pictures to calculate the wound area. […]

Another data set concerns VEGF. Nature of the data set: Staining of VEGF expression level in tissue of atopic eczema. Type of data set: in vivo. The note with it: balb/c mice, 50 μg/0.2 ml of excavatolide B in lotion (FIG. 8). The method, then: as §1, §2, §3
In data set [1] the test system is angiogenesis (blood vessels marked by vWF). In words: Staining of angiogenesis (blood vessels marked by vWF) in tissue of burn wound. In kind it is in vivo, rat. The conditions noted are these: rats, lotion containing EXC-B, versus silver sulphadiazine treating group (FIG. 6). The method, then:
as §2
(§5) Mice were scarified by cervical dislocation. The skin tissues of the backs of the mice were collected, fixed with formalin buffer and embedded in paraffin. The tissue sections were treated with a graded alcohol bath after the paraffin-embedded tissue sections (2 μm) were deparaffinized by xylene. Next, the sections reacted with 0.3% hydrogen peroxide for 30 minutes to remove endogenous peroxidase. After the paraffin-embedded tissue sections reacted with a protein K in a 4% phosphate buffer for 20 minutes at 37° C., the paraffin-embedded tissue sections were washed with 4% phosphate buffer and then blocked with horse serum diluted by phosphate buffer for 1 hr. Next, the sections were incubated with a diluted target protein antibody for 18-20 hr at 4° C. in a humid environment. After recycling the antibody, the horse serum was reused to incubate the sections for 1 hr and the sections subsequently reacted with an added corresponding secondary antibody for 90 minutes. After the sections reacted with ABC kit, DBA was used to produce color reaction, and the sections were air-dried with a graded alcohol bath and covered with a cover glass. The completed sample section was placed in an optical microscope (DM 6000, Leica Inc, Germany) and a stereomicroscope (APO Z16, Leica Inc. Singapore). […]

The subject of data set [2] is vascular endothelial growth factor (VEGF). Nature of the data set: Staining of VEGF expression level in tissue of burn wound. Type of data set: in vivo, rat. The conditions noted are these: rats, lotion containing EXC-B. The method, then:
as §2, §5

Another data set deals with burn wound tissue. Nature of the data set: HE staining of tissue section of burn wound. Type of data set: in vivo, Male Wistar rats. The note with it: rats, lotion containing EXC-B; HE stained tissue section (FIG. 5). The method, then:
Pathologic Tissue Slice and HE Staining
After the rats had suffered injuries for specific days according to experimental design they were humanely sacrificed, PBS containing heparin (0.2 U/ml) at 4 degrees Celsius was injected into aorta until PBS carrying no color flowed out of the vein. 4% paraformaldehyde at 4° C. was injected to fasten it, the wounded area was carefully taken out by surgical blades and immersed into 10% Formalin fixing solution to be reserved at 4° C. and fixed for several days. Next, the fixed tissue was dehydrated and wax infiltrated. The skin tissue was dehydrated and wax infiltrated by utilizing a tissue automatic processing system. Afterwards, the tissue was embedded by a paraffin embedding machine into paraffin blocks. After tissue blocks were sliced through a paraffin microtome, tissue slices were stained by using hematoxylin and eosin stain. Upon completion, tissue slices were mounted by micro-mount, and completed sample slices then were placed on an optical microscope for observation, the sample slices were further photographed and recorded by the digital image capture system.

The next data set concerns atopic eczema. In words: DNCB-induced atopic eczema model, image analysis of skin appearance. In kind it is in vivo. The conditions noted are these: balb/c mice. The method, then: (a) Preparation of Animal and Induction of Atopic Eczema:
as §1

With excavatolide B [EXC-B], the “decrease of the regulating factor (filaggrin as the marker) for skin barrier function” value with filaggrin is “recovered”. For the same substance, the “itchy factors (the substance P as the marker) in the tissue of the skin” value in the data set with substance P is listed as “significantly inhibited”. Also, the “wound healing depended on time (burned restoring area, area under the curve) compared to burn wound group and lotion treating group” value in the data set on burn wound (10 μg EXC-B treating group) and in the data set on burn wound (50 μg EXC-B treating group) was “significantly accelerate wound healing” throughout. Besides, the “wound healing (appearance, image analysis) after burn injury” value with burn wound (10 μg/0.2 ml of EXC-B in lotion, appearance at 2-24 days after burn injury (FIG. 3 K-O)) is “significantly improved”; in the data set with burn wound (50 μg/0.2 ml of EXC-B in lotion, appearance at 2-24 days after burn injury (FIG. 3 P-T)), “significantly improved”. The “wound healing (appearance, image analysis) compared to the diabetic incised wound group” value with diabetic incised wound (1 mg/0.2 ml of excavatolide B in lotion daily, topical, appearance at 4-25 days after incised injury (FIG. 1)) is listed as “significantly improved”. Moreover, in the data set with diabetic incised wound (1 mg/0.2 ml of excavatolide B in lotion, at day 7, 21, and 28 (FIG. 2)), the “wound healing (wound restoring area depended on time) compared to the diabetic incised wound group” value is on record as “significantly improved”. Also, the “increased expression of the VEGF in the tissue of atopic eczema” value with VEGF was “inhibited”. In addition, in [1], the “rate of vascular proliferation (blood vessels marked by vWF)” value is “higher than that of the silver sulphadiazine treating group”. The “expression level of the VEGF of the burned tissue” value in [2] (versus lotion treating group (FIG. 6)) is “substantially increased”. In [2] (versus silver sulphadiazine treating group (FIG. 6)), the “treating effect on VEGF expression of the burned tissue relative to silver sulphadiazine” value was “better than the effect of the silver sulphadiazine”. For the same substance, in the data set on burn wound tissue, the “tissue changes induced by burn injury (thickening of epithelial layer, damages to dermis, infiltration of neutrophils)” value is “significantly improved”. In addition, in the data set with atopic eczema (50 μg/0.2 ml of excavatolide B in lotion (FIG. 7)), the “side effects of the clinical treatment, such as skin dryness and albinism” value was “no side effects of the clinical treatment were observed”. Also, in the data set on atopic eczema (50 μg/0.2 ml of excavatolide B in lotion, seven consecutive days from day 15 (FIG. 7)), the “condition of the treated skin (inflammations, scratched wounds)” value is “significantly better than the skin of the atopic eczema”.
